Measured values from patent US9994528B2, “Certain amino-pyridines and amino-triazines, compositions thereof, and methods for their use” (Cytokinetics, Inc., priority 2010, dated 2018).

Test system: rabbit skeletal myofibrils (approximately 90% fast fibers)
Assay: Activation of fast skeletal myofibrils (PUMA coupled-enzyme ATPase assay)
Type: biochemical
Conditions: AC1.4 = concentration at which the compound increased the enzymatic activity by 40%; myofibril suspension at calcium level pCa25; PM12 buffer pH 6.8
Method: Preparation of fast skeletal myofibrils. Rabbit skeletal myofibrils were prepared based upon the method of Herrmann et al. (Biochem. 32(28):7255-7263(1993). Myofibrils were prepared from rabbit psoas muscle purchased from Pel-Freez Biologicals (Arkansas) within 2 days of ordering, stored on ice. Minced muscle was homogenized in 10 volumes of ice-cold “standard” buffer (50 mM Tris, pH 7.4, 0.1 M potassium acetate, 5 mM KCl, 2 mM DTT, 0.2 mM PMSF, 10 μM leupeptin, 5 μM pepstatin, and 0.5 mM sodium azide) containing 5 mM EDTA and 0.5% Triton X-100 using an Omni-Macro homogenizer. Myofibrils were recovered by low speed centrifugation (3000 rpm for 10 minutes) and washed 2 times in the Triton X-100 containing buffer to ensure removal of cellular membrane. Following the Triton washes, myofibrils were washed 3 times in “standard” buffer containing 2 mM magnesium acetate. A final wash in assay buffer (12 mM PIPES, pH 6.8, 60 mM KCl, 1 mM DTT) was performed and brought to 10% sucrose for flash freezing in liquid nitrogen and storage at −80° C.
Activation of Fast Skeletal Myofibrils. Fast fiber activators were identified by measuring the enzymatic activity of muscle myofibril preparations using the proprietary PUMA™ (see, e.g., U.S. Pat. Nos. 6,410,254, 6,743,599, 7,202,051, and 7,378,254) assay system. Myofibril preparations consisted of rabbit skeletal muscle (approximately 90% fast fibers) that had been mechanically homogenized and washed with a detergent (triton X-100) to remove cellular membranes. This preparation retained all of the sarcomeric components in a native conformation and the enzymatic activity was still regulated by calcium. Compounds were tested using a myofibril suspension and a level of calcium sufficient to increase enzymatic activity of the myofibrils to 25% of their maximal rate (termed pCa25). Enzymatic activity was tracked via a pyruvate kinase and lactate dehydrogenase-coupled enzyme system. This assay regenerates myosin-produced ADP into ATP by oxidizing NADH, producing an absorbance change at 340 nm. The buffering system was 12 mM Pipes, 2 mM MgCl2, 1 mM DTT at pH 6.8 (PM12 buffer).
Using procedures similar to those described herein, utilizing reagents and intermediates commercially available (e.g., Sigma-Aldrich,) or readily synthesized by one of skill in the art, the compounds in Table 2 were synthesized, characterized and tested. AC1.4 values were determined according to the procedure described in Example 25, and the reported median AC1.4 values are as follows: A=<1 uM; B=1-10 uM; C=10-20 uM; D=>20 uM.

SMILES	Mean AC1.4
NC(=O)c1cnn(-c2cnc(NC3(c4ncccc4F)CCC3)nn2)c1 [1-(3-{[(3-fluoro-2-pyridyl)cyclobutyl]amino}-1,2,4-triazin-6-yl)pyrazole-4-carboxamide]	D (D=>20 uM)
CC(C)(CNc1cnc(-c2cccc(C(N)=O)c2)nn1)c1ccc(F)cc1 [3-(6-{[2-(4-fluorophenyl)-2-methylpropyl]amino}-1,2,4-triazin-3-yl)benzamide]	B (B=1-10 uM)
CC(C)(Nc1ncc(-n2cc(C(N)=O)cn2)nn1)c1ncccc1Cl [1-(3-{[1-(3-chloro(2-pyridyl))-isopropyl]amino}-1,2,4-triazin-6-yl)pyrazole-4-carboxamide]	D (D=>20 uM)
CC(=O)NCc1cnc(-c2cnc(NC[C@]3(c4ncccc4F)C[C@H](F)C3)nn2)s1 [N-({2-[3-({[3-fluoro-1-(3-fluoro(2-pyridyl))cyclobutyl]methyl}amino)-1,2,4-triazin-6-yl]-1,3-thiazol-5-yl}methyl)acetamide]	B (B=1-10 uM)
CC(C)(CNc1ccc(CC(O)CO)cn1)c1ccc(F)cc1 (stereo not shown) [3-(6-{[2-(4-fluorophenyl)-2-methylpropyl]amino}-3-pyridyl)propane-1,2-diol]	D (D=>20 uM)
NC(=O)c1cnn(-c2cnc(NCC3(c4ncccc4F)CCC3)nn2)c1 [1-[3-({[(3-fluoro-2-pyridyl)cyclobutyl]methyl}amino)-1,2,4-triazin-6-yl]pyrazole-4-carboxamide]	B (B=1-10 uM)
CC(C)(Nc1ncc(-c2cccc(C(N)=O)c2)nn1)c1ncccc1Cl [3-(3-{[1-(3-chloro(2-pyridyl))-isopropyl]amino}-1,2,4-triazin-6-yl)benzamide]	B (B=1-10 uM)
CC(C)(CNc1ncc(-c2ccc3[nH]nc(N)c3c2)nn1)c1ccc(F)cc1 [[6-(3-amino(1H-indazol-5-yl))(1,2,4-triazin-3-yl)][2-(4-fluorophenyl)-2-methylpropyl]amine]	A (A=<1 uM)
NC(=O)c1cccc(-c2ncc(NCC3(c4ccc(F)cc4)CCC3)nn2)c1 [3-[6-({[(4-fluorophenyl)cyclobutyl]methyl}amino 1,2,4-triazin-3-yl]benzamide]	A (A=<1 uM)
N#Cc1cccc(-c2cnc(NC[C@]3(c4ncccc4Cl)C[C@H](F)C3)nn2)c1 [3-[3-({[1-(3-chloro(2-pyridyl))-3-fluorocyclobutyl]methyl}amino)-1,2,4-triazin-6-yl]benzenecarbonitrile]	B (B=1-10 uM)
CC(Nc1ncc(-c2cc(C(N)=O)ccc2F)nn1)c1ncccc1F (stereo not shown) [4-fluoro-3-(3-{[(3-fluoro(2-pyridyl))ethyl]amino}(1,2,4-triazin-6-yl))benzamide]	C (C=10-20 uM)
Fc1cccnc1C1(CNc2ncc(-c3ccc4[nH]ncc4c3)nn2)CCC1 [(6-(1H-indazol-5-yl)(1,2,4-triazin-3-yl)){[(3-fluoro(2-pyridyl))cyclobutyl]methyl}amine]	B (B=1-10 uM)
CC(Nc1ncc(-c2cc(C(N)=O)ccc2F)nn1)c1cccc(OC(F)F)n1 (stereo not shown) [3-[3-({[6-(difluoromethoxy)(2-pyridyl)]ethyl}amino)(1,2,4-triazin-6-yl)]-4-fluorobenzamide]	C (C=10-20 uM)
O=C(O)c1ccc(F)c(-c2cnc(NCC3(c4ncccc4Cl)CCC3)nn2)c1 [3-[3-({[(3-chloro(2-pyridyl))cyclobutyl]methyl}amino)(1,2,4-triazin-6-yl)]-4-fluorobenzoic acid]	A (A=<1 uM)
NC(=O)Cc1cnc(-c2cnc(NCC3(c4ncccc4F)CCC3)nn2)s1 [2-{2-[3-({[(3-fluoro-2-pyridyl)cyclobutyl]methyl}amino)-1,2,4-triazin-6-yl]-1,3-thiazol-5-yl}acetamide]	C (C=10-20 uM)
CNC(=O)c1ccc(F)c(-c2cnc(NCC3(c4ncccc4F)CCC3)nn2)c1 [{4-fluoro-3-[3-({[(3-fluoro(2-pyridyl))cyclobutyl]methyl}amino)(1,2,4-triazin-6-yl)]phenyl}-N-methylcarboxamide]	B (B=1-10 uM)
CC(C)(Nc1ncc(-c2ccc3[nH][nH]c(=O)c3c2)nn1)c1ncccc1F [5-(3-{[1-(3-fluoro(2-pyridyl))-isopropyl]amino}-1,2,4-triazin-6-yl)-1H-2-hydroindazol-3-one]	B (B=1-10 uM)

SMILES	Mean AC1.4
NC(=O)c1ccc(F)c(-c2cnc(NC3(c4ccc(F)cc4)CCC3)nn2)c1 [4-fluoro-3-(3-{[(4-fluorophenyl)cyclobutyl]amino}(1,2,4-triazin-6-yl))benzamide]	B (B=1-10 uM)
N#Cc1cccc(-c2cnc(NCC3(c4ccccn4)CCC3)nn2)c1 [3-(3-{[(2-pyridylcyclobutyl)methyl]amino}-1,2,4-triazin-6-yl)benzenecarbonitrile]	B (B=1-10 uM)
CNC(=O)c1ccc(O)c(-c2cnc(NC[C@]3(c4ncccc4F)C[C@H](F)C3)nn2)c1 [{3-[3-({[3-fluoro-1-(3-fluoro(2-pyridyl))cyclobutyl]methyl}amino)(1,2,4-triazin-6-yl)]-4-hydroxyphenyl}-N-methylcarboxamide]	A (A=<1 uM)
CNC(=O)c1ccc(F)c(-c2cnc(NC[C@]3(c4ncccc4F)C[C@H](F)C3)nn2)c1 [{4-fluoro-3-[3-({[3-fluoro-1-(3-fluoro(2-pyridyl))cyclobutyl]methyl}amino)(1,2,4-triazin-6-yl)]phenyl}-N-methylcarboxamide]	B (B=1-10 uM)
CC(C)(CNc1ccc(C(N)=O)cn1)c1ccc(F)cc1 [6-{[2-(4-f1uorophenyl)-2-methylpropyl]amino}pyridine-3-carboxamide]	C (C=10-20 uM)
NC(=O)c1ccc(F)c(-c2cnc(NC[C@]3(c4ncccc4F)C[C@H](F)C3)nn2)c1 [4-fluoro-3-[3-({[3-fluoro-1-(3-fluoro(2-pyridyl))cyclobutyl]methyl}amino)(1,2,4-triazin-6-yl)]benzamide]	A (A=<1 uM)
CC(C)(Nc1ncc(-c2cccc(CC(N)=O)c2)nn1)c1ncccc1F [2-[3-(3-{[1-(3-fluoro(2-pyridyl))-isopropyl]amino}-1,2,4-triazin-6-yl)phenyl]acetamide]	D (D=>20 uM)
CC(C)(CNc1ncc(-c2ccc3[nH]ncc3c2)nn1)c1ncccc1F [(6-(1H-indazol-5-yl)(1,2,4-triazin-3-yl))[2-(3-fluoro(2-pyridyl))-2-methylpropyl]amine]	C (C=10-20 uM)
NC(=O)c1ccc(F)c(-c2cnc(NC3(c4ncccc4F)CCC3)nn2)c1 [4-fluoro-3-(3-{[(3-fluoro(2-pyridyl))cyclobutyl]amino}(1,2,4-triazin-6-yl))benzamide]	B (B=1-10 uM)
NC(=O)c1cccc(-c2cnc(NCC3(c4ccccn4)CCC3)nn2)c1 [3-(3-{[(2-pyridylcyclobutyl)methyl]amino}-1,2,4-triazin-6-yl)benzamide]	B (B=1-10 uM)
CC(C)(Nc1ncc(-c2ccc(F)c(C(=O)O)c2)nn1)c1ncccc1F [2-fluoro-5-(3-{[1-(3-fluoro(2-pyridyl))-isopropyl]amino}(1,2,4-triazin-6-yl))benzoic acid]	D (D=>20 uM)
CC(=O)NCc1ccc(F)c(-c2cnc(NC(C)(C)c3ncccc3F)nn2)c1 [N-{[4-fluoro-3-(3-{[1-(3-fluoro(2-pyridyl))-isopropyl]amino}(1,2,4-triazin-6-yl))phenyl]methyl}acetamide]	D (D=>20 uM)
CC(C)(Nc1ncc(-c2cc(C(N)=O)ccc2F)nn1)c1cccc(S(C)(=O)=O)c1 [4-fluoro-3-[3-({1-methyl-1-[3-(methylsulfonyl)phenyl]ethyl}amino)(1,2,4-triazin-6-yl)]benzamide]	D (D=>20 uM)
Cc1ccc(F)c(C(C)(C)Nc2ncc(-c3cc(C(N)=O)ccc3F)nn2)n1 [4-fluoro-3-(3-{[1-(3-fluoro-6-methyl(2-pyridyl))-isopropyl]amino}(1,2,4-triazin-6-yl))benzamide]	B (B=1-10 uM)
COC(=O)c1ccc(F)c(-c2cnc(NCC(C)(C)c3ncccc3Cl)nn2)c1 [methyl 3-(3-{[2-(3-chloro(2-pyridyl))-2-methylpropyl]amino}(1,2,4-triazin-6-yl))-4-fluorobenzoate]	D (D=>20 uM)
CC(C)(CNc1cc(-c2ccc(F)cc2)ccn1)c1ccc(F)cc1 [[4-(4-fluorophenyl)(2-pyridyl)][2-(4-fluorophenyl)-2-methylpropyl]amine]	D (D=>20 uM)
C[C@H](CNc1ccc(-c2cccc(C(N)=O)c2)cn1)c1ccc(F)cc1 [3-(6-{[(2S)-2-(4-fluorophenyl)propyl]amino}-3-pyridyl)benzamide]	B (B=1-10 uM)
